Laboratory results taken from publication PMC6300978 (Chemico-biological interactions, 2015).
“And” between values parts separate entries of the source, which are not always exact repeats. Identical values can stand only once.

Legend:
[1] = molecular target: T1, recombinant human UGT2B15 (Homo sapiens, UniProt P54855); test: GA glucuronidation by recombinant UGT2B15; assay type: in vitro ADME; conditions: UGT2B15, whole range of substrate concentrations
T1 sequence (P54855 24-530): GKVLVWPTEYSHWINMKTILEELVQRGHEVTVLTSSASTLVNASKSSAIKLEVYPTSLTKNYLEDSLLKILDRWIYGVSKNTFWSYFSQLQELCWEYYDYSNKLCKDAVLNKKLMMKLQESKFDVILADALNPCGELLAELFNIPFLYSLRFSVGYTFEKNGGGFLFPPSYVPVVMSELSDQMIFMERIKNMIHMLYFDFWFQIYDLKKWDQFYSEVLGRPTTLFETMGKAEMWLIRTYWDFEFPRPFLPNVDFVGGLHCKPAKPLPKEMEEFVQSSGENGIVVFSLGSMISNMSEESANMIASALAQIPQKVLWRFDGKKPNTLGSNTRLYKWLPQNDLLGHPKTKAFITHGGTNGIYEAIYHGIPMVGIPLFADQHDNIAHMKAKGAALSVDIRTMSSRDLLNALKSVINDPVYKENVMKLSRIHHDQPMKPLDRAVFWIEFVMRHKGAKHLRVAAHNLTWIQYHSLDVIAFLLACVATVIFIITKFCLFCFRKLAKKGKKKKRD

recombinant human UGT1A9 = molecular target: T2, recombinant human UGT1A9 (Homo sapiens, UniProt O60656); test: GA glucuronidation by recombinant UGT1A9; assay type: in vitro ADME; conditions: UGT1A9, whole range of substrate concentrations
T2 sequence (O60656 26-530): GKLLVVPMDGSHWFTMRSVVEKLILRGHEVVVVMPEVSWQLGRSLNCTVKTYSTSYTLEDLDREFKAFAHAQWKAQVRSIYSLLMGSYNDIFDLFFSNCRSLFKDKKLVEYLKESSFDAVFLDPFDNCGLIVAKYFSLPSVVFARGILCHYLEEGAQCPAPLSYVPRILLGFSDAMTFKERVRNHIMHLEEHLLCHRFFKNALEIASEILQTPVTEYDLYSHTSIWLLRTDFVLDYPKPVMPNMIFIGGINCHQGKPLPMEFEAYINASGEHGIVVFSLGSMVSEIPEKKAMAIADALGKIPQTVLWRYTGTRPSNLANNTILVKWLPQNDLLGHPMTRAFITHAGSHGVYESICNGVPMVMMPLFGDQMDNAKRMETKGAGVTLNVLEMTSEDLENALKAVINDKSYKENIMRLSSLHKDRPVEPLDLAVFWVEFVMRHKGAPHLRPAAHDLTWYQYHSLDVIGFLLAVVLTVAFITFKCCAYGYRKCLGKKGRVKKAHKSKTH

UGT1A10 = molecular target: T3, UGT1A10 (Homo sapiens, UniProt Q9HAW8); test: GA glucuronidation kinetics by recombinant UGT1A10; assay type: in vitro ADME
T3 sequence (Q9HAW8 26-530): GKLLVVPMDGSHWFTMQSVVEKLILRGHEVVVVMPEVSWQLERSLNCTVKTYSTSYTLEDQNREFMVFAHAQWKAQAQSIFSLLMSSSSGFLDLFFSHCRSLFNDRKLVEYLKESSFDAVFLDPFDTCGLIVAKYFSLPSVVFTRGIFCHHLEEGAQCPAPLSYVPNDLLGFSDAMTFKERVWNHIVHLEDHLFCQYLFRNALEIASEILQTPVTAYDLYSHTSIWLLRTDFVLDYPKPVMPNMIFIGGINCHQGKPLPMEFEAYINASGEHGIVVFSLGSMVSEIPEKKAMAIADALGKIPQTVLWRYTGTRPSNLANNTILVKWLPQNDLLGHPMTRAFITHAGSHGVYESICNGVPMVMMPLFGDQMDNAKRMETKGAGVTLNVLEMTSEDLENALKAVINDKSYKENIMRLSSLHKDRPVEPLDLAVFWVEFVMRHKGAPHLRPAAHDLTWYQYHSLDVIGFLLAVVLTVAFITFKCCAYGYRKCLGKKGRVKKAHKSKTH

[2] = GA glucuronidation kinetics in rat intestinal microsomes; assay type: in vitro ADME, Sprague-Dawley rats
[3] = GA glucuronidation kinetics in rat liver microsomes; assay type: in vitro ADME, Sprague-Dawley rats; conditions: for microsomal CLint: rat liver microsomes
UGT1A1 = molecular target: T4, UGT1A1 (Homo sapiens, UniProt P22309); test: GA glucuronidation kinetics by recombinant UGT1A1; assay type: in vitro ADME; conditions: recombinant human UGT1A1, pH 7.4, Clint
T4 sequence (P22309 26-533): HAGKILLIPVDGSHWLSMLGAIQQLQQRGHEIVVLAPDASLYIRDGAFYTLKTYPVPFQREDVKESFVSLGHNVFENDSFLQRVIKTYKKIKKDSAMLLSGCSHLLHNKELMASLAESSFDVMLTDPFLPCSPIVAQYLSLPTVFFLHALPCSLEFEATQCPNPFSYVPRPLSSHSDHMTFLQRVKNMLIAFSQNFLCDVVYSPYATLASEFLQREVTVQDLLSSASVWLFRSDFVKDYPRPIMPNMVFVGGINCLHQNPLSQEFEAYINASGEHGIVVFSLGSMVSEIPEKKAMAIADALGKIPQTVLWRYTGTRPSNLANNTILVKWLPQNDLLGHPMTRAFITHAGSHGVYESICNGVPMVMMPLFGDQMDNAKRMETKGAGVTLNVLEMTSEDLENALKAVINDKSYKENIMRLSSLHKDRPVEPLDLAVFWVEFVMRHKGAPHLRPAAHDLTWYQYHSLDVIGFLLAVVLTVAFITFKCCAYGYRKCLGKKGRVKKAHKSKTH

[4] = GA glucuronidation kinetics in beagle dog liver microsomes; assay type: in vitro ADME, beagle dogs; conditions: DLM; for microsomal CLint / Km at 30 min: beagle, dog; for microsomal CLint: dog liver microsomes; for Km at 30 min: liver microsomes, pH 7.4, Km (KS), Michaelis–Menten
CYP3A4 = conditions: earlier study; cited from earlier work

SMILES: CC1(C)C=Cc2c(ccc3c2OC[C@@H](c2ccc(O)cc2O)C3)O1 [GA, glabridin]
- GA glucuronidation activity [1]: < 0.04 nmol/min/mg
- GA glucuronidation activity (recombinant human UGT1A9): < 0.04 nmol/min/mg
- KSI (UGT1A10; UGT1A10, M2 formation): 36 ± 11 µM
- Vmax (UGT1A10; UGT1A10, M2 formation): 0.50 ± 0.10 nmol/min/mg and 0.5 ± 0.1 nmol/min/mg
- microsomal CLint (UGT1A10; human, recombinant UGT1A10, pH 7.4): 18 µL/min/mg
- KSI ([2]; RIM, M2 formation): 5.3 ± 2.5 µM
- Vmax ([2]; RIM, M2 formation): 19 ± 6 nmol/min/mg
- Km at 20 min ([2]; male, Sprague-Dawley, rat, intestinal microsomes, pH 7.4): 3.8 ± 1.1 µM
- microsomal CLint ([2]; male, Sprague-Dawley, rat, rat intestinal microsomes, pH 7.4, Cltotal, RIM): 5000 µL/min/mg
- KSI ([3]; RLM, M2 formation): 7.6 ± 3.0 µM
- Vmax ([3]; RLM, M2 formation): 16 ± 5 nmol/min/mg
- Km at 20 min ([3]; male, Sprague-Dawley, rat, liver microsomes, pH 7.4): 3.9 ± 1.9 µM
- microsomal CLint ([3]; male, Sprague-Dawley, rat, pH 7.4, Clint, RLM, M2 formation): 4100 µL/min/mg
- microsomal CLint ([3]; male, Sprague-Dawley, rat, pH 7.4, Clint, RLM, M2 formation (text)): 4000 µL/min/mg
- microsomal CLint ([3]; male, Sprague-Dawley, rat, pH 7.4, Cltotal, RLM): 4100 µL/min/mg
- microsomal CLint (UGT1A1; UGT1A1, M1 formation): 22 µL/min/mg
- microsomal CLint (UGT1A1; UGT1A1, M2 formation): 5 µL/min/mg
- Vmax ([4]; M1 formation): 2.4 ± 0.5 nmol/min/mg
- Vmax ([4]; M2 formation): 6.2 ± 1.3 nmol/min/mg
- microsomal CLint ([4]; pH 7.4, Clint, M1 formation): 71 µL/min/mg
- microsomal CLint ([4]; pH 7.4, Clint, M2 formation): 214 µL/min/mg
- microsomal CLint ([4]; pH 7.4, Cltotal, M1 + M2): 285 µL/min/mg
- Km at 30 min ([4]; M1 formation): 34 ± 12 µM
- Km at 30 min ([4]; M2 formation): 29 ± 12 µM
- inhibition of CYP3A4 (CYP3A4): mechanism-based inhibitor
